These results are taken from article PMC9506414, “Novel 2,6,9-Trisubstituted Purines as Potent CDK Inhibitors Alleviating Trastuzumab-Resistance of HER2-Positive Breast Cancers” (Pharmaceuticals, 2022).

In one assay the test system is cyclinK. The experiment in a line: Western blot of cyclinK in SK-Br3 cells. The note with it: SK-Br3 cells, 0.2, 1 μM, 2 h. Type of assay: cell-based, human. As for the experimental part:
(§1) The proteins were transferred to nitrocellulose membrane (Gelman Sciences, Ann Arbor, MI, USA) by electroblotting. The membranes were blocked with 5% non-fat dry milk (MB Cell, Seoul, Korea), incubated with primary antibodies for overnight at 4 °C. After the washing steps were performed with TBST solution, the membranes were incubated with HRP-conjugated secondary antibodies for 1 h at rt. After the secondary washing steps using TBST solution, protein bands on the membranes were visualized using enhanced chemiluminescence ECL detection reagent (Biorad Laboratories, Hercules, CA, USA).
(Immunoblotting shows a protein as a band on a membrane.)

A further assay concerns SK-Br3 cells. Kind of assay: Antiproliferation assay (Cell-titer Glo, 72 h). It is filed as cell-based. The note with it: Homo sapiens, SK-BR-3; 72 h; means and standard deviations from three independent assays; read-out: SK-Br3 (GI50/μM). As for the experimental part:
(§2) Breast-cancer cell lines (SK-Br3, HCC-1954) were purchased from Korea Cell Line Bank (Seoul, Korea) and were cultured in RPMI medium supplemented with 10% FBS and penicillin/streptomycin (Welgene, Seoul, Korea). All cell lines were maintained at 37 °C in a cell incubator in the presence of 5% CO2.
(§3) Breast-cancer cells in culture media (100 μL volume/well, 5000 SK-Br3 cells/well, 1000 HCC-1954 cells/well) were seeded in tissue culture-treated 96-well plates, and incubated at a cell incubator for 24 h. Serially diluted compounds (3-fold, 10 point from 10 mM, duplicated) were pre-plated and 500 nL of compound solutions were pin-transferred to the cells in the assay plates using pintool system (JANUS liquid handler, PerkinElmer, Waltham, MA, USA) and incubated at a cell incubator for 72 h. Cell-titer Glo^TM reagent (50 μL, Promega Corp., Madison, WI, USA) was added to each well, and the luminescence signal was read using an Envision^TM plate reader (PerkinElmer, Waltham, MA, USA). The titration curve fitting and IC50 values were generated using Prism 7.0 s/w (GraphPad, San Diego, CA, USA).

For another assay, the system named is HCC1954 cells. The experiment in a line: Antiproliferation assay (Cell-titer Glo, 72 h). It is filed as cell-based. The note with it: Homo sapiens, 72 h, means and standard deviations from three independent assays, read-out: HCC1954 (GI50/μM). How it is done:
as §2, §3

Another assay has as its system Pol II p-CTD (Ser2). Kind of assay: Western blot of Pol II p-CTD (Ser2) in SK-Br3 cells. Type of assay: cell-based, human. The note with it: SK-Br3 cells, 0.2, 1 μM, 2 h.
Excerpt: For Western blot analysis, the following antibodies were used: anti-Pol II CTD (2629S, Cell Signaling Technology, Danvers, MA, USA), anti-Pol II p-CTD (Ser2) (13499S, Cell Signaling Technology), anti-cyclinK (A301-939A-M, Bethyl Laboratories), anti-IRS1 (3407S, Cell Signaling Technology), anti-WNT1 (SC-514531, Santa Cruz Biotechnology, Dallas, TX, USA), anti-β-actin (MAB1501R, Millipore, Burlington, MA, USA), and horseradish peroxidase (HRP)-conjugated secondary antibodies (anti-mouse GTX213112-01; anti-rabbit GTX213110-01) (Genetex, Irvine, CA, USA).
as §1, with “Cells were lysed with lysis buffer containing 50 mM Tris pH 7.4, 150 mM NaCl, 1 mM EDTA, 1% NP-40, and 0.25% sodium deoxycholate supplemented with protease-inhibitor and phosphatase-inhibitor cocktails. The lysate samples (25 μg/lane) were loaded onto 6–12% sodium dodecyl sulfate polyacrylamide gel and separated by electrophoresis (SDS-PAGE). The proteins” for “The proteins”

Another assay concerns the target CDK12/CyclinK (Homo sapiens, UniProt Q9NYV4). Kind of assay: In vitro CDK12/cyclinK kinase assay. Also noted: purchased Reaction Biology Corp. (CRO that ran the assay). Type of assay: biochemical. As for the experimental part:
In vitro CDK12/cyclinK assays for all compounds and in vitro kinome-wide inhibition profiling of 30d at 10 μM were performed by a CRO company (Reaction Biology Corp., San Diego, CA, USA).

Setting [1] is: Tables 1-4, read-out: CDK12/CyclinK (IC50/μM).

Entries after “also recorded” stand apart in the source; their conditions may differ. Read-outs that look alike come from different tables or passages of the source. Bounds are passed on as bounds.

CDK12/CyclinK, sequence (Q9NYV4 whole entry): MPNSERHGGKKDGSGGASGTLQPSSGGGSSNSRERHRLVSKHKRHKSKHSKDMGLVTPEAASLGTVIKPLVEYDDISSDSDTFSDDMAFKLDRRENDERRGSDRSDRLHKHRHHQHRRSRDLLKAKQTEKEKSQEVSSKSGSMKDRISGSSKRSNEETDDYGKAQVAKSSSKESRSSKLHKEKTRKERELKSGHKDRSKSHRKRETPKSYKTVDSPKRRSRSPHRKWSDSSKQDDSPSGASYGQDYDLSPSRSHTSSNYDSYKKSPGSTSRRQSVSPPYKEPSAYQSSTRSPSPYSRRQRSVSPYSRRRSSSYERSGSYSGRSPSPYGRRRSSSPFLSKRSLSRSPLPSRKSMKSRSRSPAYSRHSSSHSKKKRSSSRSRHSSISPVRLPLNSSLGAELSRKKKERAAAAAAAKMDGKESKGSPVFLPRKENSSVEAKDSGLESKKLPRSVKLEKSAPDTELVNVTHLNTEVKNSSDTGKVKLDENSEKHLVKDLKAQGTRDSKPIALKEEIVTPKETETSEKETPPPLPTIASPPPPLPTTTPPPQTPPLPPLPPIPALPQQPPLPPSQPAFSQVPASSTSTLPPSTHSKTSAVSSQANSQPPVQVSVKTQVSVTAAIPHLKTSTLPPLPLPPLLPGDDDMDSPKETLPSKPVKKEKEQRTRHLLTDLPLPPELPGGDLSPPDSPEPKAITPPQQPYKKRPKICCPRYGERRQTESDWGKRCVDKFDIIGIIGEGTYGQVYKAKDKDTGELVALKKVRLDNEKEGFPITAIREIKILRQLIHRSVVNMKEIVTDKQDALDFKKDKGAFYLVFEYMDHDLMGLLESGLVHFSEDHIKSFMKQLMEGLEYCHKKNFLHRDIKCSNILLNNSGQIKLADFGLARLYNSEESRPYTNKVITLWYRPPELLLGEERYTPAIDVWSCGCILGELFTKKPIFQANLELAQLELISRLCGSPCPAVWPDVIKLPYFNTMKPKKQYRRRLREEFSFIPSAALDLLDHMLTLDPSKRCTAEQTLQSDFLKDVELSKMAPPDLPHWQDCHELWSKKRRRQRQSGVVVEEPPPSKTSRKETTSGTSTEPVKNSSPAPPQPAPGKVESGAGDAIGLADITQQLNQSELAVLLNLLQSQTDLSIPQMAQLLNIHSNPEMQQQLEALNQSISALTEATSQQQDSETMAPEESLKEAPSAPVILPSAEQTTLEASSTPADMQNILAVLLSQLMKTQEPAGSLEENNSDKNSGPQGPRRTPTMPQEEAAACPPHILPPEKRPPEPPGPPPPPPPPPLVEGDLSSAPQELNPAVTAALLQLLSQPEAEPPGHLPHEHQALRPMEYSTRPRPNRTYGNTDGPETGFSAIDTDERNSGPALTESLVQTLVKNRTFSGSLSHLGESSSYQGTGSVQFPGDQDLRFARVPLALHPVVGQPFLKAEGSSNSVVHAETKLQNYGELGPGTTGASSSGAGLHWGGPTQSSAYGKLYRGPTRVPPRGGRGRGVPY
CDK12/CyclinK, sequence (O75909 whole entry partner): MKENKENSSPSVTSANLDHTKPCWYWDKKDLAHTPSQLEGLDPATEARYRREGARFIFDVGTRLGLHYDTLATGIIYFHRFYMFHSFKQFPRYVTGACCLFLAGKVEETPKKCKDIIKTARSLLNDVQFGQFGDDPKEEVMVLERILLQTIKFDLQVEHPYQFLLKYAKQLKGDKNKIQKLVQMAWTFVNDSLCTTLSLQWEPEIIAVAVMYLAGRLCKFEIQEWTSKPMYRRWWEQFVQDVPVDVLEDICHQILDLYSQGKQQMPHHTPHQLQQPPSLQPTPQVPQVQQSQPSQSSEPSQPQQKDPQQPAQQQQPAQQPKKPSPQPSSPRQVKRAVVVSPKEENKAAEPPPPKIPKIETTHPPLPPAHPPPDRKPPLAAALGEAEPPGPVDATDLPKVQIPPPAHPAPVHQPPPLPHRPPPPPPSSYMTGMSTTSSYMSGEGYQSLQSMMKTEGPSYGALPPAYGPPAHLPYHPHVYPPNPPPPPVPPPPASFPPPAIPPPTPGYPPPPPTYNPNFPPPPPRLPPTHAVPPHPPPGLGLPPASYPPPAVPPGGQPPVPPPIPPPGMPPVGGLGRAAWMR

For `CC(C)n1cnc2c(NCc3ccc(-c4cccnc4)cn3)nc(-c3cccnc3)nc21` [Compound 17b, N-([3,3′-Bipyridin]-6-ylmethyl)-9-isopropyl-2-(pyridin-3-yl)-9H-purin-6-amine], in the assay on cyclinK, the “cyclinK level (Western blot)” value is “downregulated Pol II p-CTD (Ser2) and cyclinK in a dose-dependent manner”. For the same molecule, the GI50 in the assay on SK-Br3 cells is 0.862 ± 0.178 µM; in the assay with HCC1954 cells, 0.627 ± 0.128 µM. For the same molecule, the “PolII p-CTD (Ser2) level (Western blot)” value in the assay with Pol II p-CTD (Ser2) was “downregulated Pol II p-CTD (Ser2) and cyclinK in a dose-dependent manner”. For the same molecule, at CDK12/CyclinK (setting [1]), the IC50 amounted to 0.582 µM.
As for `Cc1cc(-c2ccc(CNc3nc(-c4cccnc4)nc4c3ncn4C(C)C)nc2)ccn1` [Compound 17e, 9-Isopropyl-N-((2′-methyl-[3,4′-bipyridin]-6-yl)methyl)-2-(pyridin-3-yl)-9H-purin-6-amine], the “cyclinK level (Western blot)” value in the assay on cyclinK was “downregulated Pol II p-CTD (Ser2) and cyclinK in a dose-dependent manner”. In addition, the GI50 was 0.277 ± 0.038 µM with SK-Br3 cells and 0.23 ± 0.044 µM in the assay on HCC1954 cells. The “PolII p-CTD (Ser2) level (Western blot)” value with Pol II p-CTD (Ser2) was “downregulated Pol II p-CTD (Ser2) and cyclinK in a dose-dependent manner”. Moreover, the IC50 on CDK12/CyclinK (setting [1]) turned out to be 0.481 µM.
For the molecule `CC(C)n1cnc2c(NCc3ccc(-c4cccnc4)nc3)nc(-c3ccc(NCCO)nc3)nc21` [Compound 22a, 2-((5-(6-(([2,3′-Bipyridin]-5-ylmethyl)amino)-9-isopropyl-9H-purin-2-yl)pyridin-2-yl)amino)ethan-1-ol], the GI50 in the assay on SK-Br3 cells was found to be 0.262 ± 0.021 µM; in the assay on HCC1954 cells it was 0.174 ± 0.019 µM. In addition, on CDK12/CyclinK (setting [1]), the IC50 came to 0.053 µM.
In the same order, the values of `CC(C)n1cnc2c(NCc3ccc(-c4cccnc4)nc3)nc(-c3ccc(C(N)=O)cc3)nc21` [Compound 18c, 4-(6-(([2,3′-Bipyridin]-5-ylmethyl)amino)-9-isopropyl-9H-purin-2-yl)benzamide] are 3.71 ± 0.45 µM, 3.14 ± 0.201 µM and 0.484 µM.
As to `CC(C)n1cnc2c(NCc3ccc(-c4ccccn4)cn3)nc(-c3cccnc3)nc21` [Compound 17a, N-([2,3′-Bipyridin]-6′-ylmethyl)-9-isopropyl-2-(pyridin-3-yl)-9H-purin-6-amine], in the assay with cyclinK, the “cyclinK level (Western blot)” value was “most prominent cyclinK degradation; also recorded: downregulated Pol II p-CTD (Ser2) and cyclinK in a dose-dependent manner”. Moreover, the values for the GI50 in the assay on SK-Br3 cells and in the assay with HCC1954 cells were 0.151 ± 0.025 µM and 0.106 ± 0.011 µM, respectively. Moreover, the “PolII p-CTD (Ser2) level (Western blot)” value in the assay on Pol II p-CTD (Ser2) was “downregulated Pol II p-CTD (Ser2) and cyclinK in a dose-dependent manner”. The IC50 on CDK12/CyclinK (setting [1]) was 0.433 µM.
As to `CC(C)n1cnc2c(NCc3ccc(-c4cccnc4)nc3)nc(-c3cccc(NCCCO)c3)nc21` [Compound 20c, 3-((3-(6-(([2,3′-Bipyridin]-5-ylmethyl)amino)-9-isopropyl-9H-purin-2-yl)phenyl)amino)propan-1-ol], the GI50 worked out at 0.732 ± 0.177 µM with SK-Br3 cells and 0.502 ± 0.025 µM with HCC1954 cells. The IC50 on CDK12/CyclinK (setting [1]) is 0.257 µM.
Consider `CC(C)n1cnc2c(NCc3ccc(-c4ccncc4)cn3)nc(-c3cccnc3)nc21` [Compound 17d, N-([3,4′-Bipyridin]-6-ylmethyl)-9-isopropyl-2-(pyridin-3-yl)-9H-purin-6-amine], for which the “cyclinK level (Western blot)” value with cyclinK is “downregulated Pol II p-CTD (Ser2) and cyclinK in a dose-dependent manner”. In addition, the results for the GI50 in the assay on SK-Br3 cells and in the assay with HCC1954 cells were 0.741 ± 0.034 µM and 0.887 ± 0.04 µM, respectively. For the same molecule, the “PolII p-CTD (Ser2) level (Western blot)” value with Pol II p-CTD (Ser2) was “downregulated Pol II p-CTD (Ser2) and cyclinK in a dose-dependent manner”. Further, the IC50 at CDK12/CyclinK (setting [1]) worked out at 0.627 µM.
As for `CC(C)n1cnc2c(NCc3ccc(-c4cccnc4)nc3)nc(-c3ccc4cn[nH]c4c3)nc21` [Compound 18e, N-([2,3′-Bipyridin]-5-ylmethyl)-2-(1H-indazol-6-yl)-9-isopropyl-9H-purin-6-amine], the GI50 was 0.608 ± 0.115 µM in the assay on SK-Br3 cells and 0.399 ± 0.051 µM with HCC1954 cells. Also, the IC50 on CDK12/CyclinK (setting [1]) was determined as 0.179 µM.
In the same order, the values of `CC(C)n1cnc2c(NCc3ccc(-c4cccnc4)nc3)nc(-c3ccccc3)nc21` [Compound 18a, N-([2,3′-Bipyridin]-5-ylmethyl)-9-isopropyl-2-phenyl-9H-purin-6-amine] are 1.69 ± 0.243 µM, 1.12 ± 0.26 µM and 0.623 µM.
For `CC(C)n1cnc2c(NCc3ccc(-c4cccnc4)nc3)nc(-c3ccc(NCCCO)cc3)nc21` [Compound 20d, 3-((4-(6-(([2,3′-Bipyridin]-5-ylmethyl)amino)-9-isopropyl-9H-purin-2-yl)phenyl)amino)propan-1-ol], in that order: 1.09 ± 0.127 µM, 0.907 ± 0.068 µM and 0.499 µM.
For `CC(C)n1cnc2c(NCc3ccc(-c4cccnc4)nc3)nc(-c3ccc(F)nc3)nc21` [Compound 21a, N-([2,3′-Bipyridin]-5-ylmethyl)-2-(6-fluoropyridin-3-yl)-9-isopropyl-9H-purin-6-amine], in that order: 1.7 ± 0.165 µM, 1.33 ± 0.393 µM and 0.147 µM.
As to `CC(C)n1cnc2c(NCc3ccc(-c4cccnc4)nc3)nc(-c3cccnc3)nc21` [Compound 17f, N-([2,3′-Bipyridin]-5-ylmethyl)-9-isopropyl-2-(pyridin-3-yl)-9H-purin-6-amine], the values for the GI50 with SK-Br3 cells and with HCC1954 cells were 0.41 ± 0.034 µM and 0.247 ± 0.03 µM, respectively. Further, the IC50 at CDK12/CyclinK (setting [1]) worked out at 0.221 µM.
In the same order, the values of `CC(C)n1cnc2c(NCc3ccc(-c4cccnc4)nc3)nc(-n3cc(CCO)nn3)nc21` [Compound 26b, 2-(1-(6-(([2,3′-Bipyridin]-5-ylmethyl)amino)-9-isopropyl-9H-purin-2-yl)-1H-1,2,3-triazol-4-yl)ethan-1-ol] are 8.3 ± 0.882 µM, 6.16 ± 0.429 µM and 0.539 µM.
Take `CCn1cnc2c(NCc3ccc(-c4cccnc4)nc3)nc(-c3cccnc3)nc21` [Compound 28a, N-([2,3′-Bipyridin]-5-ylmethyl)-9-ethyl-2-(pyridin-3-yl)-9H-purin-6-amine]: the GI50 with SK-Br3 cells turned out to be 0.215 ± 0.053 µM; with HCC1954 cells, 0.142 ± 0.014 µM. The IC50 is 0.016 µM at CDK12/CyclinK (setting [1]) and < 0.03 µM at CDK12/CyclinK (read-out: CDK12/cyclinK IC50).
`CC(C)n1cnc2c(NCc3ccc(-c4cccnc4)nc3)nc(-c3ccccc3NCCO)nc21` [Compound 20a, 2-((2-(6-(([2,3′-Bipyridin]-5-ylmethyl)amino)-9-isopropyl-9H-purin-2-yl)phenyl)amino)ethan-1-ol]: the GI50 came to 2.3 ± 0.318 µM with SK-Br3 cells and 1.56 ± 0.116 µM with HCC1954 cells. For the same molecule, on CDK12/CyclinK (setting [1]), the IC50 is 0.799 µM.
For `CC(C)n1cnc2c(NCc3ccc(-c4cccnc4)nc3)nc(-n3cc(CO)nn3)nc21` [Compound 26a, (1-(6-(([2,3′-Bipyridin]-5-ylmethyl)amino)-9-isopropyl-9H-purin-2-yl)-1H-1,2,3-triazol-4-yl)methanol], in that order: 13.3 ± 3.15 µM, 9.97 ± 1.86 µM and 2.05 µM.
For `CC(C)n1cnc2c(NCc3ccc(-c4cccnc4)nc3)nc(-c3ccccc3NCCCO)nc21` [Compound 20b, 3-((2-(6-(([2,3′-Bipyridin]-5-ylmethyl)amino)-9-isopropyl-9H-purin-2-yl)phenyl)amino)propan-1-ol], in that order: 11.2 ± 1.12 µM, 6.05 ± 0.351 µM and 3.01 µM.
In the same order, the values of `CC(C)n1cnc2c(NCc3ccc(-c4cccnc4)nc3)nc(-c3ccnc(NCCO)c3)nc21` [Compound 22c, 2-((4-(6-(([2,3′-Bipyridin]-5-ylmethyl)amino)-9-isopropyl-9H-purin-2-yl)pyridin-2-yl)amino)ethan-1-ol] are 0.473 ± 0.087 µM, 0.433 ± 0.052 µM and 0.086 µM.
